# Experiments:
# [1] = tested on: transgenic T1 Arabidopsis plants, Scenedesmus HPPD alanine 318 exchanged by glycine and leucine 350 substituted with methionine; experiment: T1 spray application; type: in vivo, Arabidopsis thaliana; conditions: FIG. 3; pictures 8 days after treatment
# Protocol: (§1) Wildtype plants were sprayed in parallel at each application rate (two lower pots below dashed line) whereas T1 plants are represented by the five upper pots. Pictures were taken 8 days after treatment.
# (§2) Transgenic T1 Arabidopsis plants were sprayed with the indicated amount of HPPD inhibiting herbicide. The T1 spray application is a fast method to evaluate the potential of transgenic traits even though a segregating population and only one event of respective traits is tested.
# [2] = tested on: transgenic T1 Arabidopsis plants, Scenedesmus HPPD phenylalanine 363 exchanged by isoleucine; experiment: T1 spray application; type: in vivo, Arabidopsis thaliana; conditions: FIG. 3; highest application rate
# Protocol: as §1, §2
structure (smiles),measurement,setting,value
"Cc1c(C(=O)c2cnn(C)c2O)ccc(S(C)(=O)=O)c1C1=NOCC1 [Inhibitor 1, [3-(4,5-dihydroisoxazol-3-yl)-2-methyl-4-methylsulfonyl-phenyl]-(5-hydroxy-1-methyl-pyrazol-4-yl)methanone]",tolerance of T1 plants to spray,[1],good tolerance
same,tolerance of T1 plants to spray,[2],highly tolerant

# Reference: patent US11248234B2, “Herbicide-resistant hydroxyphenylpyruvate dioxygenases” (BASF SE, priority 2015, dated 2022)
